Measured values published in patent US11453697B1, “Cyclic di-nucleotide compounds as sting agonists” (Merck Sharp & Dohme Corp., priority 2015, dated 2022).
Like-named read-outs stand apart in the source and are kept apart here.

Columns and labels:
full-length HAQ STING = full-length HAQ STING (Homo sapiens (Human), UniProt Q86WV6, G230A/H232R/R293Q/R71H); assay: 3H-cGAMP filtration binding assay (HAQ STING); details: competition with tritiated cGAMP, HAQ STING membrane; read-out: EC50 (nM), 3H-cGAMP filtration binding assay for HAQ STING
full-length HAQ STING, sequence (Q86WV6 other isoform, or with tags, fused parts or gaps, stated change not applied): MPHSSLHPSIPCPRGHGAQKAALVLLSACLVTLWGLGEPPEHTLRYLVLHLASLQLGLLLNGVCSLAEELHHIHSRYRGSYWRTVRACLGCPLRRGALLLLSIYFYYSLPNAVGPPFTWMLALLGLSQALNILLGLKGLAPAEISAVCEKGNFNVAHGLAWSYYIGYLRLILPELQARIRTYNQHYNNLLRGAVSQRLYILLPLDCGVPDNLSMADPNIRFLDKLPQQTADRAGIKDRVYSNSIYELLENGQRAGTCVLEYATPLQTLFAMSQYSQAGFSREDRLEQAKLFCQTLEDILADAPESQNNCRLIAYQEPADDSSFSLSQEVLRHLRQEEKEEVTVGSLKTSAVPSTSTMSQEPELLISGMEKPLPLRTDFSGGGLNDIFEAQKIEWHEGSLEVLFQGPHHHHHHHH
Source text: The ability of compounds to bind STING is quantified by the ability to compete with tritiated cGAMP ligand for human STING receptor membrane using a radioactive filter-binding assay. The binding assay employs STING receptor obtained from Hi-Five cell membranes overexpressing full-length HAQ STING prepared in-house and tritiated cGAMP ligand also purified in-house.
The ability of compounds to bind STING is quantified by their ability to compete with tritiated cGAMP ligand for human STING receptor membrane using a radioactive filter-binding assay.
The basic HAQ STING filtration assay protocol is as follows:
Compound and membrane then preincubated for 60 min at RT to allow compound binding to equilibrate. Following equilibration, 8 nM of [^3H] c-GAMP ligand was prepared by diluting into assay buffer, and 50 uL of this working stock was then manually added to each well of the assay plate. […] The filter plates were then dried at 55° C. for 30 min using a pressurized VWR oven before 30 uL of Ultima GoldF scintillate was added to each well. Tritium levels for each reaction well were then measured using a PerkinElmer TopCount plate reader.
After normalization to controls, the percent activity for each compound concentration was calculated by measuring the amount of remaining radioactivity. The plot of percent activity versus the log of compound concentration was fit with a 4-parameter dose response equation to calculate EC50 values.

[1] = tested on: IFN-β secretion in THP1 cells; assay: IFN-β secretion in THP1 cell culture (5 h); type: cell-based, human
Method: The ability of compounds to stimulate the secretion of interferon-beta from THP1 cells was measured using a human IFN-β AlphaLISA kit (Perkin Elmer, Cat. No. AL265F). The basic protocol is as follows:
The cell viability and count was ascertained using a Beckman Coulter V-Cell XR cell counter. The cells suspension was centrifuged at 200×g for 5 min at RT. […] Subsequent liquid transfers were performed using either a Matrix electronic multichannel pipette or an Agilent Bravo Automated Liquid Handling Platform.
The assay was started by dispensing 40 μL of the previously prepared cell suspension into the wells of the plate containing compounds. After 5 h incubation at 37° C., 5% CO2 in a humidified atmosphere, the plate of cells and compounds was centrifuged at 200×g for 5 min at RT. […] To these supernatant-containing wells was added 10 μL of 5× Anti-Analyte Acceptor beads (50 μg/mL of AlphaLISA HiBlock Buffer) and incubated for 30 min at RT while shaking on an orbital plate shaker. To each well was added 10 μL of 5× Biotinylated Antibody Anti-analyte (5 nM in AlphaLISA HiBlock Buffer) and incubated on an orbital plate shaker for 60 min at RT or overnight at 4° C. To each well was added 25 μL of 2× SA-Donor beads (80 μg/mL in AlphaLISA HiBlock Buffer) and incubated for 30-45 min at RT in the dark while shaking on an orbital plate shaker. The plate was then read on a Perkin Elmer Envision (λex=680 nm, λem=[…]). The percent effect of the AlphaLISA signal at each compound concentration was calculated based on 30 uM cGAMP positive controls and 0.3% DMSO negative controls. The plot of percent effect versus the log of compound concentration was fit with a 4-parameter concentration response equation to calculate EC50 values.
Compounds of the disclosure were evaluated for IFN-β secretion in THP1 cell culture as described above.

[2] = IFN-β secretion in THP1 cell culture, 5 h, compound at 30 μM, percent activation relative to 2′3′-cGAMP

SMILES | EC50 (full-length HAQ STING) | % Effect at 30 μM relative to 2′3′-cGAMP [1] | % Effect at 30 μM relative to 2′3′-cGAMP [1, 2]
Nc1nc2c(ncn2[C@@H]2O[C@@H]3COP(=O)(O)O[C@H]4[C@@H](O)[C@H](c5cnn6c(N)ncnc56)O[C@@H]4COP(=O)(O)O[C@@H]2[C@@H]3O)c(=O)[nH]1 [Example 54, 2-amino-9-[(5R,7R,8R,12aR,14S,15S,15aS,16R)-14-(4-aminopyrazolo[1,5-a][1,3,5]triazin-8-yl)-2,10,15,16-tetrahydroxy-2,10-dioxidooctahydro-12H-5,8-methanofuro[3,2-l][1,3,6,9,11,2,10]pentaoxadiphosphacyclotetradecin-7-yl]-1,9-dihydro-6H-purin-6-one] | < 1 nM | 83% | –
Nc1nc2c(ncn2[C@@H]2O[C@@H]3COP(=O)(O)O[C@H]4[C@@H](O)[C@H](c5cnc6c(N)ncnn56)O[C@@H]4COP(=O)(O)O[C@@H]2[C@@H]3O)c(=O)[nH]1 [Example 40, 2-amino-9-[(5R,7R,8R,12aR,14S,15S,15aS,16R)-14-(4-aminoimidazo[2,1-f][1,2,4]triazin-7-yl)-2,10,15,16-tetrahydroxy-2,10-dioxidooctahydro-12H-5,8-methanofuro[3,2-l][1,3,6,9,11,2,10]pentaoxadiphosphacyclotetradecin-7-yl]-1,9-dihydro-6H-purin-6-one] | 3.2 nM | – | 77%
Nc1nc2c(ncn2[C@@H]2O[C@@H]3COP(=O)(S)OC4[C@@H](COP(=O)(S)O[C@H]2C3)O[C@@H](n2nnc3c(N)ncnc32)[C@H]4F)c(=O)[nH]1 (stereo partly drawn) [Example 133, 2-amino-9-[(5S,7R,8R,12aR,14R,15S,15aR)-14-(7-amino-3H-[1,2,3]triazolo[4,5-d]pyrimidin-3-yl)-15-fluoro-2,10-dihydroxy-2,10-disulfidooctahydro-12H-5,8-methanofuro[3,2-l][1,3,6,9,11,2,10]pentaoxadiphosphacyclotetra-decin-7-yl]-1,9-dihydro-6H-purin-6-one] | – | – | 117%
Nc1nc2c(ncn2[C@@H]2O[C@@H]3COP(=O)(O)OC4[C@@H](COP(=O)(O)O[C@H]2C3F)O[C@@H](n2cnc3c(N)ncnc32)[C@H]4F)c(=O)[nH]1 (stereo partly drawn) [Example 26, 2-amino-9-[(2S,5R,7R,8S,10S,12aR,14R,15S,15aR,16R)-14-(6-amino-9H-purin-9-yl)-15,16-difluoro-2,10-dihydroxy-2,10-dioxidooctahydro-12H-5,8-methanofuro[3,2-l][1,3,6,9,11,2,10]pentaoxadiphosphacyclotetradecin-7-yl]-1,9-dihydro-6H-purin-6-one] | – | 150% | –
Nc1nc2c(ncn2[C@@H]2O[C@@H]3COP(O)(=S)O[C@H]4[C@H](F)[C@H](n5cnc6c(N)ncnc65)O[C@@H]4COP(O)(=S)O[C@@H]2[C@@H]3F)c(=O)[nH]1 (single isomer, unassigned) [Example 245] | – | – | 234%
Nc1nc2c(ncn2[C@@H]2O[C@@H]3COP(=O)(S)O[C@H]4[C@@H](O)[C@H](n5ccc6c(N)ncnc65)O[C@@H]4COP(=O)(S)O[C@@H]2C3)c(=O)[nH]1 (stereo partly drawn) [Example 78, 2-amino-9-[(5S,7R,8R,12aR,14R,15R,15aS)-14-(4-amino-7H-pyrrolo[2,3-d]pyrimidin-7-yl)-15-hydroxy-2,10-dioxido-2,10-disulfanyloctahydro-12H-5,8-methanofuro[3,2-l][1,3,6,9,11,2,10]pentaoxadiphosphacyclotetradecin-7-yl]-1,9-dihydro-6H-purin-6-one] | – | – | 162%
Nc1nc2c(ncn2[C@@H]2O[C@@H]3COP(=O)(S)O[C@H]4[C@@H](O)[C@H](n5ccc6c(N)ncnc65)O[C@@H]4COP(=O)(S)O[C@@H]2C3)c(=O)[nH]1 (stereo partly drawn) [Example 80, 2-amino-9-[(5S,7R,8R,12aR,14R,15R,15aS)-14-(4-amino-7H-pyrrolo[2,3-d]pyrimidin-7-yl)-15-hydroxy-2,10-dioxido-2,10-disulfanyloctahydro-12H-5,8-methanofuro[3,2-l][1,3,6,9,11,2,10]pentaoxadiphosphacyclotetradecin-7-yl]-1,9-dihydro-6H-purin-6-one] | – | – | 234%
Nc1nc2c(ncn2[C@@H]2O[C@@H]3COP(=O)(O)OC4C(O)[C@H](n5cnc6c(N)ncnc65)O[C@@H]4COP(=O)(O)OC2C3F)c(=O)[nH]1 (stereo in doubt) [Example 5, (5R,7R,8S,12aR,14R,15R,15aS,16R)-7-(2-amino-6-oxo-1,6-dihydro-9H-purin-9-yl)-14-(6-amino-9H-purin-9-yl)-16-fluoro-15-hydroxyoctahydro-12H-5,8-methanofuro[3,2-l] [1,3,6,9,11,2,10]pentaoxadiphosphacyclotetradecine-2,10-diolate 2,10-dioxide] | – | 152% | –

The next lines start with results.

EC50 (full-length HAQ STING) | SMILES | % Effect at 30 μM relative to 2′3′-cGAMP [1] | % Effect at 30 μM relative to 2′3′-cGAMP [1, 2]
739 nM | Nc1nc2c(ncn2[C@@H]2O[C@@H]3COP(=O)(S)O[C@H]4[C@H](F)[C@H](n5nnc6c(N)ncnc65)O[C@@H]4COP(=O)(S)O[C@@H]2C3)c(=O)[nH]1 (stereo partly drawn) [Example 138, 2-amino-9-[(5S,7R,8R,12aR,14R,15S,15aR)-14-(7-amino-3H-[1,2,3]triazolo[4,5-d]pyrimidin-3-yl)-15-fluoro-2,10-dioxido-2,10-disulfanyloctahydro-12H-5,8-methanofuro[3,2-l] [1,3,6,9,11,2,10]pentaoxadiphosphacyclotetra-decin-7-yl]-1,9-dihydro-6H-purin-6-one] | – | 51%
161 nM | Nc1nc2c(ncn2[C@@H]2O[C@@H]3COP(=O)(S)O[C@H]4[C@@H](O)[C@H](n5ccc6c(N)ncnc65)O[C@@H]4COP(=O)(S)O[C@@H]2C3)c(=O)[nH]1 (single isomer, unassigned) [Example 77] | – | 39%
< 1 nM | Nc1nc2c(nnn2[C@@H]2O[C@@H]3COP(=O)(O)O[C@H]4[C@@H](O)[C@H](n5cnc6c(N)ncnc65)O[C@@H]4COP(=O)(O)O[C@@H]2[C@@H]3O)c(=O)[nH]1 [Example 69, 5-amino-3-[(5R,7R,8R,12aR,14R,15R,15aS,16R)-14-(6-amino-9H-purin-9-yl)-2,10,15,16-tetrahydroxy-2,10-dioxidooctahydro-12H-5,8-methanofuro[3,2-l][1,3,6,9,11,2,10]pentaoxadiphosphacyclotetradecin-7-yl]-3,6-dihydro-7H-[1,2,3]triazolo[4,5-d]pyrimidin-7-one] | – | –
1.3 nM | Nc1nc2c(ncn2[C@@H]2O[C@@H]3COP(=O)(S)O[C@H]4[C@@H](O)[C@H](n5ccc6c(N)ncnc65)O[C@@H]4COP(=O)(S)O[C@@H]2C3)c(=O)[nH]1 (single isomer, unassigned) [Example 80] | – | –
< 1 nM | Nc1nc2c(ncn2[C@@H]2O[C@@H]3CO[P@@](O)(=S)O[C@H]4[C@H](F)[C@H](n5cnc6c(N)ncnc65)O[C@@H]4CO[P@@](O)(=S)O[C@@H]2C3)c(=O)[nH]1 [Example 130, 2-amino-9-[(2R,5S,7R,8R,10R,12aR,14R,15S,15aR)-14-(6-amino-9H-purin-9-yl)-15-fluoro-2,10-dihydroxy-2,10-disulfidooctahydro-12H-5,8-methanofuro[3,2-l][1,3,6,9,11,2,10]pentaoxadiphosphacyclotetradecin-7-yl]-1,9-dihydro-6H-purin-6-one] | – | –
25.9 nM | Nc1nc2c(ncn2[C@@H]2O[C@@H]3COP(=O)(S)OC4[C@@H](COP(=O)(S)O[C@H]2C3)O[C@@H](n2cnc3c(N)ncnc32)[C@H]4F)c(=O)[nH]1 (single isomer, unassigned) [Example 132] | – | –
14.6 nM | Nc1nc2c(ncn2[C@@H]2O[C@@H]3COP(=O)(S)O[C@H]4[C@@H](O)[C@H](n5ccc6c(N)ncnc65)O[C@@H]4COP(=O)(S)O[C@@H]2C3)c(=O)[nH]1 (single isomer, unassigned) [Example 78] | – | –
103 nM | Nc1nc2c(ncn2[C@@H]2O[C@@H]3COP(=O)(S)O[C@H]4[C@@H](O)[C@H](n5ccc6c(N)ncnc65)O[C@@H]4COP(=O)(S)O[C@@H]2C3)c(=O)[nH]1 (single isomer, unassigned) [Example 79] | – | –
